System: Human neonatal primary skin keratinocyte (NHEK) cells
Assay: psoriasin (AMP marker) secretion by human keratinocytes, ELISA of culture supernatant
Assay type: cell-based
Conditions: 72 hours incubation, KGM with 2 mM calcium chloride
Procedure: Step 1: Human neonatal primary skin keratinocyte (NHEK) cells was obtained from Lonza ®. The experiment was done with the above-mentioned cells with passage between 3 and 4. Then, the cells were seeded (35,000 cells/well) in 24 well plate with keratinocyte growth media (KGM) obtained from Invitrogen®. The plate was then incubated at 37±2° C. in a CO2 incubator for 48 hours.
Step 2: After 48 hours of incubation, cell differentiation was induced by replacing media with fresh KGM supplemented with 2 mM calcium chloride solution. This was then followed by incubation at 37±2° C. in a CO2 incubator for 48 hours.
Step 3: After that, the cells were treated with different concentration (as outlined table 1 below) of N-cyclopentyl nicotinamide, with keratinocyte growth media supplemented with 2mM calcium chloride solution:
Step 4: After the above treatment, cells were again incubated at 37±2° C. in a CO2 incubator for 72 hours.
Step 5: After 72 hours of incubation, cell culture supernatant from each well was collected in a sterile tube. The samples were then stored at -80° C. until used for testing psoriasin secretion by standard ELISA technique using psoriasin ELISA kit obtained from Circulx® (No: CY-8073). In the current experiment, psoriasin was used as a marker for AMP.
Step 6: The ELISA method was performed by using 100 μL of cell culture supernatant from each sample.
The data is expressed in terms of fold change over control (no treatment:
Example A). The fold change in psoriasin levels in case of control (example A) is taken to be equal to 1 fold. Any fold change in psoriasin obtained due to treatments outlined in all the other examples was over and above the 1 fold change obtained from the control.

Row | SMILES | Fold Change in psoriasin levels over control (no treatment, Example A = 1) (200 μg/mL) [fold] | Fold Change in psoriasin levels over control (no treatment, Example A = 1) (500 μg/mL) [fold] | Fold Change in psoriasin levels over control (no treatment, Example A = 1) (400 μg/mL) [fold]
1 | NC(=O)c1cccnc1 [B, Niacinamide] | 0.9 | 1.4 | –
2 | O=C(NC1CCCC1)c1cccnc1 [Example 1, N-cyclopentyl nicotinamide] | 2.06 | – | 2.84
